In US20230026360A1, “DETECTION OF MOLECULAR INTERACTIONS” (Orionis Biosciences, Inc., priority 2019, published 2023):
Entries after “also recorded” stand apart in the source; their conditions may differ.

Columns and labels:
Assay type in all cases: cell-based
CRBN-SALL4 interaction = CRBN-SALL4 interaction (Homo sapiens, UniProt Q96SW2); test: MAPPIT inverse assay, CRBN gp130 fusion + SALL4 receptor fusion; parameters: expressed in transfected cells; host or cells: HEK293T; details: inverse configuration; HEK293T cells; EPO; dose-response
Excerpt: (§1) The traditional MAPPIT assay has been used to monitor protein-protein interactions. A bait protein (protein A) is expressed as a fusion protein in which it is genetically fused to an engineered intracellular receptor domain of the leptin receptor, which is itself fused to the extracellular domain of the erythropoietin (Epo) receptor. Binding of Epo ligand to the Epo receptor component results in activation of receptor-associated intracellular JAK2. However, activated JAK2 cannot activate the leptin receptor to trigger STAT3 binding and its phosphorylation because its tyrosine residues, normally phosphorylated by activated JAK2, have been mutated. […] Activation of STAT3 can be monitored by introduction of a STAT3-responsive reporter gene, including a luciferase-encoding gene or a gene encoding a fluorescent marker such as GFP or some other type of Fluorescent Protein (EGFP etc.). […]
(§2) Full size proteins were fused for each of the target/prey proteins tested, except in the case of IKZF1 where isoform 7 was used. […] Luciferase activity was measured 24 hours after test compound treatment using the Luciferase Assay System kit (PROMEGA, Madison, Wis.) with an Ensight plate reader (PERKIN ELMER LIFE SCIENCES, Waltham, Mass.). […]

CRBN = biological target: T1, CRBN (Homo sapiens, UniProt Q96SW2); test: CRBN inverse MAPPIT competition assay against TMP-lenalidomide hybrid ligand; details: 300 nM TMP-lenalidomide; leptin; HEK293T; specificity versus gp130-REM2 control (CTRL)
T1 construct: expressed in transfected cells; host or cells: HEK293T
Excerpt: As in Example 6, HEK293T cells were transfected with a plasmid encoding E. coli Dihydrofolate Reductase (DHFR) fused to the tails of the cytoplasmic domain of a mutated leptin receptor (pCLG-DHFR), a plasmid encoding a CRBN prey fused to the gp130 cytoplasmic domain or a plasmid encoding a gp130-REM2 control fusion that can directly interact with the leptin receptor of the DHFR fusion protein, and the STAT3 responsive pXP2d2-rPAPI-luciferase reporter plasmid—using a standard transfection method, as described (Lievens, et al. “Array MAPPIT: high-throughput interactome analysis in mammalian cells.” Journal of Proteome Research 8.2 (2009): 877-886). […] Data points in FIGS. 10A-B represent the average luciferase activity of triplicate samples derived from cells treated with leptin+test compound for the REM2 control (CTRL) or cells treated with leptin+hybrid ligand+test compound (CRBN) relative to leptin (CTRL) or leptin+hybrid ligand (CRBN) only treated samples (the signals obtained in absence of added test compound for both cases is set at 100% of luciferase activity on y-axis). Error bars represent standard deviations. Curves were fit using 4-parameter nonlinear regression in […] PRISM software.

CRBN-IKZF1 interaction [1] = biological target: T2, CRBN-IKZF1 interaction (Homo sapiens, UniProt Q96SW2); test: MAPPIT forward assay, CRBN receptor fusion + IKZF1 gp130 fusion; details: forward configuration; HEK293T cells; EPO; dose-response; IKZF1 isoform 7
T2 construct: expressed in transfected cells; host or cells: HEK293T
Excerpt: as §1, §2

CRBN-IKZF2 interaction = CRBN-IKZF2 interaction (Homo sapiens, UniProt Q96SW2); test: MAPPIT forward assay, CRBN receptor fusion + IKZF2 gp130 fusion; parameters: MAPPIT chimeric receptor (EPO receptor extracellular domain + signaling-deficient leptin receptor part); expressed in transfected cells; host or cells: HEK293T; details: forward configuration; HEK293T cells; EPO; dose-response
Excerpt: as §1, §2

CRBN-IKZF1 interaction [2] = biological target: T2, CRBN-IKZF1 interaction; test: MAPPIT inverse assay, CRBN gp130 fusion + IKZF1 receptor fusion; details: inverse configuration; HEK293T cells; EPO; dose-response; IKZF1 isoform 7
Excerpt: as §1, §2

O=C1CC[C@H](N2Cc3c(OCc4ccc(CN5CCOCC5)cc4)cccc3C2=O)C(=O)N1 [CC-220]
compound-induced binding of SALL4 to CRBN (luciferase reporter signal) (CRBN-SALL4 interaction): an interaction signal response could be detected | competition with TMP-lenalidomide hybrid ligand for binding to CRBN (inhibition of luciferase signal) (CRBN): specifically inhibit hybrid-ligand induced luciferase reporter activation in a dose-dependent manner; also recorded: competed efficiently | compound-induced binding of IKZF1 to CRBN (luciferase reporter signal) (CRBN-IKZF1 interaction [1]): can be detected with both the forward and the inverse assay configuration | compound-induced binding of IKZF2 to CRBN (luciferase reporter signal) (CRBN-IKZF2 interaction): only in the inverse assay setup an interaction signal response could be detected | compound-induced binding of IKZF1 to CRBN (luciferase reporter signal) (CRBN-IKZF1 interaction [2]): can be detected with both the forward and the inverse assay configuration
